Data on 15 compounds can be found in patent publication US10087170B2, “Compound, photosensitive resin composition including the same, and color filter” (SAMSUNG SDI CO., LTD., priority 2016, dated 2018).

SMILES strings stand for the structures.

The nature of the series: Evaluation 1: Solubility in organic solvents. It is filed as physicochemical. To be noted: 0.5 g compound, stirred at 25° C. and 100 rpm for 1 hour; for Amount of dissolved compound (wt %) Chloroform: solvent chloroform; for Amount of dissolved compound (wt %) Diacetone alcohol: solvent diacetone alcohol. The source says:
Solubility Evaluation Reference
X: solubility of less than 1 wt %
∘: solubility of greater than or equal to 1 wt % and less than 5 wt %
⊚: solubility of greater than or equal to 5 wt %

For `CC[N+](CC)=c1ccc2c(-c3ccccc3S(=O)(=O)[O-])c3ccc(N(C)CCCCCCN(C)c4ccc5c(-c6ccccc6S(=O)(=O)[O-])c6ccc(=[N+](CC)CC)cc-6oc5c4)cc3oc-2c1` [Chemical Formula 7], the “Amount of dissolved compound (wt %) Chloroform” value (from here on “Amount … (wt %) Chloroform”) was “◯ (solubility of greater than or equal lo 1 wt % and less than 5 wt %)”; the “Amount of dissolved compound (wt %) Diacetone alcohol” value (shortened to “Amount … (wt %) Diacetone alcohol”) was “◯ (solubility of greater than or equal lo 1 wt % and less than 5 wt %)”.

As for `CCN(CCCCCCN(CC)c1ccc2c(-c3ccccc3S(=O)(=O)[O-])c3ccc(=[N+](CC)CC)cc-3oc2c1)c1ccc2c(-c3ccccc3S(=O)(=O)[O-])c3ccc(=[N+](CC)CC)cc-3oc2c1` [Chemical Formula 8], the “Amount … (wt %) Chloroform” value was “◯ (solubility of greater than or equal lo 1 wt % and less than 5 wt %)”; the “Amount … (wt %) Diacetone alcohol” value was “◯ (solubility of greater than or equal lo 1 wt % and less than 5 wt %)”.

Turning to `CCN(CCOC(=O)NCCCCCCNC(=O)OCCN(CC)c1ccc2c(-c3ccccc3S(=O)(=O)[O-])c3ccc(=[N+](CC)CC)cc-3oc2c1)c1ccc2c(-c3ccccc3S(=O)(=O)[O-])c3ccc(=[N+](CC)CC)cc-3oc2c1` [Chemical Formula 9], the “Amount … (wt %) Chloroform” value was “◯ (solubility of greater than or equal lo 1 wt % and less than 5 wt %)”; the “Amount … (wt %) Diacetone alcohol” value was “◯ (solubility of greater than or equal lo 1 wt % and less than 5 wt %)”.

Take `CCN(CCOC(=O)CCCCCCC(=O)OCCN(CC)c1ccc2c(-c3ccccc3S(=O)(=O)[O-])c3ccc(=[N+](CC)CC)cc-3oc2c1)c1ccc2c(-c3ccccc3S(=O)(=O)[O-])c3ccc(=[N+](CC)CC)cc-3oc2c1` [Chemical Formula 10]: the “Amount … (wt %) Chloroform” value is “◯ (solubility of greater than or equal lo 1 wt % and less than 5 wt %)”; the “Amount … (wt %) Diacetone alcohol” value is “◯ (solubility of greater than or equal lo 1 wt % and less than 5 wt %)”.

Consider `CCN(CCOC(=O)NCC1CCCC(CNC(=O)OCCN(CC)c2ccc3c(-c4ccccc4S(=O)(=O)[O-])c4ccc(=[N+](CC)CC)cc-4oc3c2)C1)c1ccc2c(-c3ccccc3S(=O)(=O)[O-])c3ccc(=[N+](CC)CC)cc-3oc2c1` (stereo not drawn) [Chemical Formula 11], for which the “Amount … (wt %) Chloroform” value is “◯ (solubility of greater than or equal lo 1 wt % and less than 5 wt %)”; the “Amount … (wt %) Diacetone alcohol” value is “◯ (solubility of greater than or equal lo 1 wt % and less than 5 wt %)”.

As to `CC[N+](CC)=c1ccc2c(-c3ccccc3S(=O)(=O)[N-]S(=O)(=O)C(F)(F)F)c3ccc(N(C)CCCCCCN(C)c4ccc5c(-c6ccccc6S(=O)(=O)[N-]S(=O)(=O)C(F)(F)F)c6ccc(=[N+](CC)CC)cc-6oc5c4)cc3oc-2c1` [Chemical Formula 12], the “Amount … (wt %) Chloroform” value is “◯ (solubility of greater than or equal lo 1 wt % and less than 5 wt %)”; the “Amount … (wt %) Diacetone alcohol” value is “◯ (solubility of greater than or equal lo 1 wt % and less than 5 wt %)”.

With `C=C(C)C(=O)OCCNC(=O)OCC[N+](CC)=c1ccc2c(-c3ccccc3S(=O)(=O)[O-])c3ccc(N(C)CCCCCCN(C)c4ccc5c(-c6ccccc6S(=O)(=O)[O-])c6ccc(=[N+](CC)CCOC(=O)NCCOC(=O)C(=C)C)cc-6oc5c4)cc3oc-2c1` [Chemical Formula 13], the “Amount … (wt %) Chloroform” value is on record as “⊚ (solubility of greater than or equal to 5 wt %)” and the “Amount … (wt %) Diacetone alcohol” value is reported as “⊚ (solubility of greater than or equal to 5 wt %)”.

`C=C(C)C(=O)OCCNC(=O)OCC[N+](CC)=c1ccc2c(-c3ccccc3S(=O)(=O)[O-])c3ccc(N(CC)CCCCCCN(CC)c4ccc5c(-c6ccccc6S(=O)(=O)[O-])c6ccc(=[N+](CC)CCOC(=O)NCCOC(=O)C(=C)C)cc-6oc5c4)cc3oc-2c1` [Chemical Formula 14]: the “Amount … (wt %) Chloroform” value is reported as “⊚ (solubility of greater than or equal to 5 wt %)” and the “Amount … (wt %) Diacetone alcohol” value is reported as “⊚ (solubility of greater than or equal to 5 wt %)”.

For `CCN(CCOC(=O)NC1CCC(CC2CCC(NC(=O)OCCN(CC)c3ccc4c(-c5ccccc5S(=O)(=O)[O-])c5ccc(=[N+](CC)CC)cc-5oc4c3)CC2)CC1)c1ccc2c(-c3ccccc3S(=O)(=O)[O-])c3ccc(=[N+](CC)CC)cc-3oc2c1` (stereo not drawn) [Chemical Formula 16], the “Amount … (wt %) Chloroform” value was “◯ (solubility of greater than or equal lo 1 wt % and less than 5 wt %)”; the “Amount … (wt %) Diacetone alcohol” value was “◯ (solubility of greater than or equal lo 1 wt % and less than 5 wt %)”.

For the compound `C=CC(=O)OCC[N+](CC)=c1ccc2c(-c3ccccc3S(=O)(=O)[O-])c3ccc(N(CC)CCCCCCN(CC)c4ccc5c(-c6ccccc6S(=O)(=O)[O-])c6ccc(=[N+](CC)CCOC(=O)C=C)cc-6oc5c4)cc3oc-2c1` [Chemical Formula 17], the “Amount … (wt %) Chloroform” value is on record as “⊚ (solubility of greater than or equal to 5 wt %)” and the “Amount … (wt %) Diacetone alcohol” value was “⊚ (solubility of greater than or equal to 5 wt %)”.

Take `C=C(C)C(=O)OCC[N+](CC)=c1ccc2c(-c3ccccc3S(=O)(=O)[O-])c3ccc(N(CC)CCCCCCN(CC)c4ccc5c(-c6ccccc6S(=O)(=O)[O-])c6ccc(=[N+](CC)CCOC(=O)C(=C)C)cc-6oc5c4)cc3oc-2c1` [Chemical Formula 18]: the “Amount … (wt %) Chloroform” value is “⊚ (solubility of greater than or equal to 5 wt %)” and the “Amount … (wt %) Diacetone alcohol” value is “⊚ (solubility of greater than or equal to 5 wt %)”.

Regarding `C=CC(=O)OCC[N+](CC)=c1ccc2c(-c3ccccc3S(=O)(=O)[O-])c3ccc(N(CC)CCCCCCN(CC)c4ccc5c(-c6ccccc6S(=O)(=O)[O-])c6ccc(=[N+](CC)CC)cc-6oc5c4)cc3oc-2c1` [Chemical Formula 19], the “Amount … (wt %) Chloroform” value was “⊚ (solubility of greater than or equal to 5 wt %)” and the “Amount … (wt %) Diacetone alcohol” value is on record as “⊚ (solubility of greater than or equal to 5 wt %)”.

Regarding `C=C(C)C(=O)OCC[N+](CC)=c1ccc2c(-c3ccccc3S(=O)(=O)[O-])c3ccc(N(CC)CCCCCCN(CC)c4ccc5c(-c6ccccc6S(=O)(=O)[O-])c6ccc(=[N+](CC)CC)cc-6oc5c4)cc3oc-2c1` [Chemical Formula 20], the “Amount … (wt %) Chloroform” value is “⊚ (solubility of greater than or equal to 5 wt %)” and the “Amount … (wt %) Diacetone alcohol” value is reported as “⊚ (solubility of greater than or equal to 5 wt %)”.

With `C=C(C)C(=O)OCCNC(=O)OCC[N+](CC)=c1ccc2c(-c3ccccc3S(=O)(=O)[O-])c3ccc(N(CC)CCCCCCN(CC)c4ccc5c(-c6ccccc6S(=O)(=O)[O-])c6ccc(=[N+](CC)CC)cc-6oc5c4)cc3oc-2c1` [Chemical Formula 21], the “Amount … (wt %) Chloroform” value is “⊚ (solubility of greater than or equal to 5 wt %)” and the “Amount … (wt %) Diacetone alcohol” value is “⊚ (solubility of greater than or equal to 5 wt %)”.

Consider `CCN(CC)c1ccc2c(-c3ccccc3S(=O)(=O)[O-])c3ccc(=[N+](CC)CC)cc-3oc2c1` [Chemical Formula X, reference compound], for which the “Amount … (wt %) Chloroform” value is “X (solubility of less than 1 wt %)” and the “Amount … (wt %) Diacetone alcohol” value is “X (solubility of less than 1 wt %)”.
